From patent US20140249573A1, “METHODS AND DEVICES FOR OCCLUDING BLOOD FLOW TO AN ORGAN” (A.A. CASH TECHNOLOGY LTD., priority 2011, published 2014) come the findings set out here.

Where “and” joins values, the source holds several entries; their conditions need not be identical. Equal values may be shown once.

The subject of data set [1] is ovary. To be noted: eight days after treatment. The protocol:
(§1) The protocol and design of all parts of this study were approved by the Animal Research Ethics Committee of Israel. Three female pigs (The Institute of Animal Research, Kibbutz Lahav, Israel) weighing 60 Kg each, were anesthetized with 10 mg/kg intramuscular ketamine hydrochloride and 4 mg/kg xylazine hydrochloride (Vetmarket, Israel). One ovary of each pig was exposed by a longitudinal midline incision. A conventional gastric band (Lap-band; Allergen, Irvine, Calif., USA) was modified according to some embodiments of the invention, to occlude blood flow to the ovaries. The band was wound around the ovarian hilum, and a zip tie was placed on the center of the band ring to reduce the diameter of the band's aperture. 10 ml saline was injected via the band's port thus completely blocking blood flow through the ovarian and uterine arteries and veins. The color and the morphology of the ovary were observed after occlusion of blood flow as well as after the bands were released. The other ovary in each pig was left unprotected (i.e. was left with natural blood flow, and thus completely exposed to chemotherapy). Heparin was administered intravenously before occlusion to prevent or reduce blood coagulation within the ovary throughout the occlusion time interval and a few hours thereafter. A control pig was left untreated.
The ovaries blood supply was occluded for 16 hours after the drug administration interval (i.e. a total occlusion time interval exceeding 17 hours). The bands were then opened by drawing out the 10 ml of saline via the port.
Eight days after the chemo treatment the pigs were euthanized according to animal ethics procedures and the ovaries were removed and examined visually, removed, weighed and follicles were counted.

The subject of data set [2] is lymphocyte. As to conditions: three female pigs, 60 mg/kg IV over 1 hour, the following day. The protocol: as §1, with “untreated. […]” for “untreated.”

On to `O=P1(N(CCCl)CCCl)NCCCO1` (stereo not shown) [Cyclophosphamide], for which, in data set [1] (all ovaries occluded during chemotherapy administration), the “size and number of follicles of occluded (protected) ovaries” value was “comparable to the control animal”. Moreover, the “Weight of ovary, Occluded” value in data set [1] (ovary with blood supply occluded by band for more than 17 hours, 60 mg/kg IV over 1 hour, one value per pig, 60 mg/kg) was 3.6 gr and 3.8 gr and 5.2 gr. Besides, in data set [1] (unprotected ovaries, in two of the three animals), the “visual appearance of unprotected ovaries” value is given as “visible signs of atrophy”. Also, in data set [2], the “lymphocyte counts, decreased to % of the initial level” value was found to be 12%.
